# According to publication PMC6442233, “SAR and molecular mechanism studies of monoamine oxidase inhibition by selected chalcone analogs” (Journal of Enzyme Inhibition and Medicinal Chemistry, 2019):
# Tests used:
# human MAO-A [1] = target: T1, human MAO-A (Homo sapiens, UniProt P21397); assay: Reversibility of MAO-A inhibition by dialysis; format: biochemical; conditions: for Reversibility of MAO-A inhibition: dialysis 24 h, inhibitor at 4 × IC50
# T1 construct: purchased Sigma-Aldrich
# T1 sequence (P21397 1-527): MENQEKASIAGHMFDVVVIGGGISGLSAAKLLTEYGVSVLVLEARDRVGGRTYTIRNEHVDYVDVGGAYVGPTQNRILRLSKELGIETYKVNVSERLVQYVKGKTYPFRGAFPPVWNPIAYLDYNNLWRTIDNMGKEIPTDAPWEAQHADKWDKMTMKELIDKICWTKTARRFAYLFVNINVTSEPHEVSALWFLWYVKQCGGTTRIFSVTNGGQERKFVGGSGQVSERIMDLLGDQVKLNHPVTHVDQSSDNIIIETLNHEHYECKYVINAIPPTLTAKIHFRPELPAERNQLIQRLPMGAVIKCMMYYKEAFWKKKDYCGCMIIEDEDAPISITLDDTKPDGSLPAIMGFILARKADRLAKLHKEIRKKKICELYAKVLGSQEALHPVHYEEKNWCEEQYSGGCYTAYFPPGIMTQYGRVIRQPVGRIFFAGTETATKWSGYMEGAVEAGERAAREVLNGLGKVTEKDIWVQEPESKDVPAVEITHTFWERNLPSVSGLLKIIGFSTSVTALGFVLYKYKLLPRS
# Protocol: (§1) The reversibility of inhibition of MAO by compound 16 was investigated by dialysis. Dialysis cassettes (Slide-A-Lyzer®; Thermo Scientific) with a volume of 0.5–3 mL and a molecular weight cutoff of 10,000 were used for the dialysis. […] The volume of these mixtures was 0.8 mL, and contained 4% DMSO. The mixtures were pre-incubated for 15 min at 37 °C and then dialyzed at 4 °C in buffer (80 mL), using the above buffer as dialysis buffer. After 3 and 7 h of dialysis, the dialysis buffer was changed with fresh buffer. […] For comparison, incubations of the MAOs and the test inhibitor were prepared as above but were not dialyzed and kept at 4 °C over the same time period. These experiments were carried out in triplicate, and the remaining enzyme catalytic rates are reported as the mean (± SD).
# human MAO-B [2] = target: T2, human MAO-B (Homo sapiens, UniProt P27338); assay: Reversibility of MAO-B inhibition by dialysis; format: biochemical
# T2 construct: purchased Sigma-Aldrich
# T2 sequence (P27338 1-520): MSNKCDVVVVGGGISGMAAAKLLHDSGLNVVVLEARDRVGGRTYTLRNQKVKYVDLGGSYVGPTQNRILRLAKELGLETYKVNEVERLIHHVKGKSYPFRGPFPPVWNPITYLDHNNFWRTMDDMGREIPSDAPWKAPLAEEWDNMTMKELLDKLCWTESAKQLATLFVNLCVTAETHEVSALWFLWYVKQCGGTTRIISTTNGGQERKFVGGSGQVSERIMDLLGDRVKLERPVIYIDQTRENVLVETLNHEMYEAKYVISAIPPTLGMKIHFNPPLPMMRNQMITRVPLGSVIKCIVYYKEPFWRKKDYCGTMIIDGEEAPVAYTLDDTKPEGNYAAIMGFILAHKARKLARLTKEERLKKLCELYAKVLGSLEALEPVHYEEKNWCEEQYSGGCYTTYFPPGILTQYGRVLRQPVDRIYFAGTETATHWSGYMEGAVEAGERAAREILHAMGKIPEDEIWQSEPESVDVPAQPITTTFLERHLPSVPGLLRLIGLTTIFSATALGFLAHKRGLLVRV
# Protocol: as §1
# human MAO-B [3] = target: T2, human MAO-B; assay: IC50 determination for MAO-B inhibition (kynuramine, fluorescence); format: biochemical; conditions: for Selectivity index: SI = IC50(MAO-A)/IC50(MAO-B); for IC50: recombinant hMAO-B, kynuramine 50 μM, mean ± SD (triplicate)
# Protocol: (§2) IC50 values for the inhibition of MAO were determined by using the recombinant human MAO-A and MAO-B enzymes (Sigma-Aldrich). Enzyme reactions were performed at a final volume of 200 µL in white 96-well microplates (Eppendorf), with the reaction solvent consisting of potassium phosphate buffer (100 mM, pH 7.4, adjusted to isotonicity with KCl). The reactions contained the nonselective MAO substrate, kynuramine (50 μM), and the test inhibitors at 0.003–100 µM. The test compounds were initially dissolved in DMSO (100%), and after addition to the reactions yielded a concentration of 4% DMSO. Control reactions were included, which contained substrate and 4% DMSO but no test inhibitor. The MAO reactions were started by adding MAO-A (0.0075 mg protein/mL) or MAO-B (0.015 mg protein/mL), and were subsequently incubated for a period of 20 min (37 °C) in a convection oven. A volume of 80 µL 2 N sodium hydroxide was added to the reactions, and the fluorescence intensity of 4-hydroxyquinoline (the end-product of the MAO-catalyzed metabolism of kynuramine) in the reactions was measured at λex 310 and λem 400 nm. To quantify 4-hydroxyquinoline, a calibration curve (linear) ranging from 0.047 to 1.56 μM, was employed. […] These measurements were carried out in triplicate and the IC50 values are presented as the mean ± standard deviation (SD)[18].
# (§3) The formation of the dihydropyridinium species (MMDP^+) as a MAO-catalyzed oxidation product of MMTP was monitored at 420 nm. […] Based on this, the IC50 values were determined using kynuramine as a nonselective substrate. The rate of oxidation of kynuramine by MAO was monitored by measuring the fluorescence of the oxidation product, 4-hydroxyquinoline (λex= 310 nm; λem= 400 nm).
# human MAO-A [4] = target: T1, human MAO-A; assay: Lineweaver-Burk plots and Ki calculation, MAO-A; format: biochemical
# Protocol: (§4) Sets of six Lineweaver–Burk plots each were prepared to determine if the inhibition of MAO-A and MAO-B by compound 16 is competitive. […] The substrate, kynuramine, was used at concentrations ranging from 15 to 250 μM, whereas the final enzyme concentration was 0.015 mg protein/mL. […] Ki values were estimated by graphing the slopes of the Lineweaver–Burk plots against inhibitor concentration. The intercept of the x-axis is equal to –Ki.
# human MAO-A [5] = target: T1, human MAO-A; assay: IC50 determination for MAO-A inhibition (kynuramine, fluorescence); format: biochemical; conditions: recombinant hMAO-A, kynuramine 50 μM, mean ± SD (triplicate)
# Protocol: as §2, §3
# human MAO-B [6] = target: T2, human MAO-B; assay: Lineweaver-Burk plots and Ki calculation, MAO-B; format: biochemical
# Protocol: as §4
# MAO-B mRNA expression = MAO-B mRNA expression in H4IIE cells (qRT-PCR); format: cell-based, rat; conditions: 70 µM
# Protocol: (§5) Rat hepatoma (H4IIE) cells were purchased from American Type Culture Collection (ATCC). H4IIE cells are from rat liver, and contain both MAO-A and MAO-B in approximately equal levels. Cells were cultured in Eagle’s minimum essential medium (EMEM) supplemented with 10% fetal bovine serum (FBS) and 1% streptomycin/penicillin at 37 °C in a 5% CO2 humidified incubator. Cells were plated at a cell density of 3.0 × 10^5 cells in each well of six well plates. Upon 80% confluence, the cells were washed with phosphate buffered saline (PBS) and the media were changed to HBSS supplemented with 10 mM HEPES and 5 mM D-glucose, pH 7.4. These media also contained calcium chloride (1.26 mM) and magnesium chloride (0.5 mM). Cells were then treated with tolcapone (1 0^−6 M), a catechol-O-methyltransferase (COMT) inhibitor to protect dopamine from enzymatic degradation, 20 min prior to starting the experiment. The cells were treated with the negative vehicle control (1% DMSO) or 70 µM of the MAO-B inhibitors (compounds 12, 14, 16, and 17) with the DMSO concentration also being 1%. The cells were subsequently treated with L-DOPA (50 µM). To measure dopamine release and MAO-B gene expression, both the cells and media were collected at 0, 30, 60, and 120 min after treatment. Dopamine level was measured in the supernatant aspirated from the cells by using high performance liquid chromatography (HPLC), while the cells were lysed with trizol for RNA extraction and subsequent gene expression studies.
# Total RNA was isolated using the Trizol agent (Invitrogen). One μg of RNA from each sample was reverse transcribed to cDNA using the M-MLV reverse transcriptase kit, according to the manufacturer’s instruction (Promega). PowerUp SYBR green master mix (Life technologies) was used for quantitative real-time polymerase chain reaction (qRT-PCR) for analysis of gene expression. The following primers were used (IDTs) MAO-B forward, […]; MAO-B reverse, […]; β-actin forward, […] and β-actin reverse, […]. qRT-PCR was performed in a 384 well plates with the Quant Studio-5 instrument (Applied Biosystems). Samples were carried out in triplicate in a 10 µL reaction volume using the following cycling conditions: UDG activation for one cycle at 50 °C for 2 min, followed by a single cycle at 95 °C for 2 min, then 40 cycles of denaturation at 95 °C for 15 s, and annealing at 60 °C for 1 min. β-actin was used as a loading control and gene expression was calculated using the 2^-ΔΔCT method as described previously.
# (§6) One-way ANOVA followed by Dunnett’s test (compared to the vehicle-control) was used to analyze the data obtained for the dopamine concentrations for compounds 12, 14, 16, and 17targeting MAO-B at 0, 30, 60, and 120 min. One-way ANOVA followed by Newman–Keuls multiple comparison tests was used to analyze time-dependent effects of compounds 14 and 17 on the relative mRNA expression (triplicate) of MAO-B enzyme.
# [7] = tested on: Rat hepatoma (H4IIE) cells; assay: Dopamine assay in H4IIE cells (HPLC with electrochemical detection); format: cell-based; conditions: 70 µM compound, 50 µM L-DOPA
# Protocol: as §5
# Rat hepatoma cells (H4IIE) were treated with 1% DMSO (vehicle-control), compounds 12, 14, 16, or 17 for different time points at a concentration of 70 µM of each compound along with 50uM L-DOPA.
# The concentrations of dopamine were detected using a CoulArray electrochemical array detector system as described previously. Briefly, supernatants obtained from cell culture were filtered using 0.22 μm filter. The filtrates were subsequently injected onto a C18 column (3.2 × 150 mm, 3 μm particle size, Thermo Scientific). The mobile phase consisted of a mixture of 54.3 mM sodium phosphate, 0.215 mM octyl sodium sulfate, 0.32 mM citric acid and 11% methanol. Dopamine concentrations were measured with the CoulArray Electrochemical Array Detector. The chromatograms were analyzed using the CoulArray software. A standard calibration curve was determined using different concentrations of an external standard dopamine (SigmaAldrich).
# as §6
# [8] = 4 × IC50, incubated 15 min, dialyzed 24 h, compared to negative control (100%)
# [9] = 4 × IC50, not dialyzed, compared to negative control (100%)
# [10] = Lineweaver-Burk plots cross on the y-axis
# [11] = slopes of Lineweaver-Burk plots vs inhibitor concentration, kynuramine 15-250 μM
structure (smiles),measurement,setting,value
"C#CCN(C)Cc1ccccc1 [Pargyline, reference compound]",Reversibility of MAO-A inhibition,human MAO-A [1],dialysis failed to restore catalytic activity
"O=C(/C=C/c1ccc(Cl)cc1)c1ccc2c(c1)OCO2 [Compound 16, (E)-1-(benzo[d][1,3]dioxol-5-yl)-3–(4-chlorophenyl)prop-2-en-1-one]",MAO-B activity after dialysis,human MAO-B [2]; [8],105%
same,"MAO-B activity, undialyzed samples",human MAO-B [2]; [9],34%
same,Reversibility of MAO-B inhibition,"human MAO-B [2]; dialysis 24 h, inhibitor at 4 × IC50",reversibly inhibits
same,MAO-A activity after dialysis,human MAO-A [1]; [8],103%
same,"MAO-A activity, undialyzed samples",human MAO-A [1]; [9],31%
same,Reversibility of MAO-A inhibition,human MAO-A [1],reversibly inhibits
same,Selectivity index,human MAO-B [3],3.0
same,IC50,human MAO-B [3],0.05 ± 0.002 µM
same,Mode of MAO-A inhibition,human MAO-A [4]; [10],competitive
same,Ki,human MAO-A [4]; [11],0.047 µM
same,IC50,human MAO-A [5],0.149 ± 0.011 µM
same,Mode of MAO-B inhibition,human MAO-B [6]; [10],competitive
same,Ki,human MAO-B [6]; [11],0.02 µM
"O=C(/C=C/c1ccc(F)cc1)c1ccc2c(c1)OCO2 [Compound 14, (E)-1-(benzo[d][1,3]dioxol-5-yl)-3–(4-fluorophenyl)prop-2-en-1-one]",Relative MAO-B mRNA expression vs negative control,MAO-B mRNA expression; 0 min,no significant changes
same,Relative MAO-B mRNA expression vs negative control,MAO-B mRNA expression; 30 min,reduced
same,Relative MAO-B mRNA expression vs negative control,MAO-B mRNA expression; 60 min,no significant changes
same,Relative MAO-B mRNA expression vs negative control,MAO-B mRNA expression; 120 min,decreased
same,Relative MAO-B mRNA expression vs 0 min time point,MAO-B mRNA expression; 120 min exposure,decreased
same,melting point,,126 to 130 °C
same,Selectivity index,human MAO-B [3],11
same,IC50,human MAO-B [3],0.043 ± 0.004 µM
same,IC50,human MAO-A [5],0.506 ± 0.052 µM
same,Dopamine concentration vs vehicle-control,[7]; 30 min,increased
same,Dopamine concentration vs vehicle-control,[7]; 60 min,elevation
same,Dopamine concentration vs vehicle-control,[7]; 120 min,increase
"O=C(/C=C/c1ccc([N+](=O)[O-])cc1)c1ccc2c(c1)OCO2 [Compound 17, (E)-1-(benzo[d][1,3]dioxol-5-yl)-3–(4-nitrophenyl)prop-2-en-1-one]",Relative MAO-B mRNA expression vs negative control,MAO-B mRNA expression; 0 min,no significant changes
same,Relative MAO-B mRNA expression vs negative control,MAO-B mRNA expression; 30 min,reduced
same,Relative MAO-B mRNA expression vs 0 min time point,MAO-B mRNA expression; 30 min exposure,reduced
same,Relative MAO-B mRNA expression vs negative control,MAO-B mRNA expression; 60 min,no significant changes
same,Relative MAO-B mRNA expression vs 0 min time point,MAO-B mRNA expression; 60 min exposure,reduced
same,melting point,,172 to 175 °C
same,Selectivity index,human MAO-B [3],13
same,IC50,human MAO-B [3],0.069 ± 0.004 µM
same,IC50,human MAO-A [5],0.927 ± 0.121 µM
same,Dopamine concentration vs vehicle-control,[7]; 30 min,increased
same,Dopamine concentration vs vehicle-control,[7]; 60 min,elevation
same,Dopamine concentration vs vehicle-control,[7]; 120 min,increase
